{"source": "patent US20220313700A1", "about": "“METHODS FOR TREATING MAP3K8 POSITIVE CANCERS” (CELL RESPONSE, INC., priority 2019, published 2022)", "key": {"[1]": {"test_system": "H358 NSCLC cell line", "test": "Alamar blue proliferation assay, H358", "format": "cell-based", "conditions": "H358, 72 hours, vs no drug", "experimental": "(§1) The experiments have been performed in the following way. Three thousand cells in suspension in the medium normally used to grow these particular cells have been placed in an individual well within a 96 well tissue culture plate. Following cell attachment, the drugs have added to the wells to achieve the final indicated concentration. Subsequently, the cells were incubated for 72 hours in a standard tissue culture incubator at 37 degrees Celsius in an atmosphere containing 5% CO2. Following 66 hours, Alamar blue was added to the cells. Six hours later (72 hours from the addition of drug) the 96 well plate was placed in a fluorescence plate reader to measure for Alamar blue fluorescence (excitation wavelength of 540-570 nm (peak excitation is 560 nm)). Fluorescence emission was read at 580-610 nm (peak emission is 590 nm). This enabled the determination of the number of live cells present in each well. Wells containing each drug were compared to control wells where no drug was added. In each experiment, each condition was performed in multiple technical repeats of between four and eight times, by using between four and eight wells that were treated identically Each and every experiment was repeated at least three times on different days. In the data shown here, a representative example of each experiment is shown."}, "[2]": {"test_system": "H23 NSCLC cell line", "test": "Alamar blue proliferation assay, H23", "format": "cell-based", "conditions": "H23, 72 hours, vs no drug", "experimental": "as §1"}, "[3]": {"test_system": "HCT15 CRC cell line", "test": "Alamar blue proliferation assay, HCT15", "format": "cell-based", "conditions": "HCT15, 72 hours; for inhibitory effect on proliferation (in words): FIG. 7, FIG. 9, FIG. 19, FIG. 20; for inhibition of proliferation: vs no drug, FIG. 8, FIG. 9", "experimental": "as §1, with “Following cell attachment, the drugs have added to the wells to achieve the final indicated concentration.” left out, “days.” for “days. In the data shown here, a representative example of each experiment is shown.”"}, "[4]": {"test_system": "11-18 NSCLC cell line", "test": "Alamar blue proliferation assay, 11-18", "format": "cell-based", "conditions": "11-18, 72 hours, FIG. 14, FIG. 17", "experimental": "as §1"}, "[5]": {"test_system": "H1975 NSCLC cell line", "test": "Alamar blue proliferation assay, H1975", "format": "cell-based", "conditions": "H1975, 72 hours, vs no drug, FIG. 14, 16, 17", "experimental": "as §1"}, "[6]": {"test_system": "A549 NSCLC cell line", "test": "Alamar blue proliferation assay, A549", "format": "cell-based", "conditions": "A549, 72 hours", "experimental": "as §1"}, "[7]": {"test_system": "LOVO colorectal cell line", "test": "Alamar blue proliferation assay, LOVO", "format": "cell-based", "conditions": "72 hours, FIG. 7, FIG. 10", "experimental": "as §1, with “Following cell attachment, the drugs have added to the wells to achieve the final indicated concentration.” left out, “days.” for “days. In the data shown here, a representative example of each experiment is shown.”"}, "[8]": {"test_system": "DLD1 CRC cell line", "test": "Alamar blue proliferation assay, DLD1", "format": "cell-based", "conditions": "DLD1, 72 hours; for inhibitory effect on proliferation (in words): FIG. 7, FIG. 9, FIG. 20", "experimental": "as §1, with “Following cell attachment, the drugs have added to the wells to achieve the final indicated concentration.” left out, “days.” for “days. In the data shown here, a representative example of each experiment is shown.”"}, "[9]": {"test_system": "IKKβ, JNK1α, p38, EGFR, CK1α, CDK2, JAK3, MST4, GSK3β", "conditions": "cited from earlier work"}, "[10]": {"target": "COT (Homo sapiens, UniProt P41279)", "sequence (P41279 whole entry)": "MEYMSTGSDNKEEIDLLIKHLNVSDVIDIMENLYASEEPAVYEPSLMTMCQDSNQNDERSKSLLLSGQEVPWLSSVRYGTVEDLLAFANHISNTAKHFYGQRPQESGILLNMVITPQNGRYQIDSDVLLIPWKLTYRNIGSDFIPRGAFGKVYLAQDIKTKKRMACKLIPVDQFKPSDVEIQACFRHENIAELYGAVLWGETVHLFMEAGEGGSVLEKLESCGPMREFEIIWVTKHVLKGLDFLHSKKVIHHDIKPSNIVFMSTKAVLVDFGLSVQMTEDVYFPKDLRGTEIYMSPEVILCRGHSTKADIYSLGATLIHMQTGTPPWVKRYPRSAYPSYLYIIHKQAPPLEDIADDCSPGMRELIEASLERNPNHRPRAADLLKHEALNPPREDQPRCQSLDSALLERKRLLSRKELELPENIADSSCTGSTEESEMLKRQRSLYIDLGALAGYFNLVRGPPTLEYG", "conditions": "cited from earlier work"}, "[11]": {"test_system": "ERK phosphorylation", "conditions": "cited from earlier work"}, "[12]": {"test_system": "intact blood cells", "conditions": "cited from earlier work"}, "[13]": {"test_system": "four other related kinases", "conditions": "cited from earlier work"}, "[14]": {"test_system": "CRC cell line HT29", "test": "Alamar blue proliferation assay, HT29", "format": "cell-based", "conditions": "HT29, 72 hours, monotherapy, FIG. 13", "experimental": "as §1"}, "[15]": {"test_system": "NSCLC patients with EGFR mutations", "conditions": "cited from earlier work"}, "[16]": {"test_system": "NSCLC H1975 cell line", "test": "siRNA knockdown proliferation assay, H1975", "format": "cell-based", "conditions": "H1975, 200 nM, FIG. 21B", "experimental": "as §1, with “Following cell attachment, the drugs have added to the wells to achieve the final indicated concentration.” left out, “days.” for “days. In the data shown here, a representative example of each experiment is shown.”"}, "[17]": {"test_system": "BxPC3 pancreatic cancer cell line", "test": "Alamar blue proliferation assay, BxPC3", "format": "cell-based", "conditions": "BxPC3, 72 hours, vs no drug", "experimental": "as §1"}, "[18]": {"test_system": "HPAFII pancreatic cancer cell line", "test": "Alamar blue proliferation assay, HPAFII", "format": "cell-based", "conditions": "72 hours, vs no drug", "experimental": "as §1"}, "[19]": {"test_system": "metastatic ROS1 positive non-small cell lung cancer (NSCLC) patients", "conditions": "cited from earlier work"}, "[20]": {"test_system": "STE1 NSCLC cell line", "test": "Alamar blue proliferation assay, STE1", "format": "cell-based", "conditions": "STE1, 72 hours, FIG. 18", "experimental": "as §1"}}, "note": "Where two headings read alike, the source gives them in different places."}
{"smiles": "C=CC(=O)N1CCN(c2nc(=O)n(-c3c(C)ccnc3C(C)C)c3nc(-c4c(O)cccc4F)c(F)cc23)[C@@H](C)C1", "note": "[AMG510, 6-fluoro-7-(2-fluoro-6-hydroxyphenyl)-1-[4-methyl-2-(propan-2-yl)pyridin-3-yl]-4-[(2S)-2-methyl-4-(prop-2-enoyl)piperazin-1-yl]-1H,2H-pyrido[2,3-d]pyrimidin-2-one]", "values": [{"measurement": "inhibition of proliferation", "setting": "[1]", "result": 30, "unit": "%"}, {"measurement": "inhibition of proliferation", "setting": "[2]", "result": 50, "unit": "%"}]}
{"smiles": "CCN1CCC(n2cc(CNc3cc(Cl)c4ncc(C#N)c(Nc5ccc(F)c(Cl)c5)c4c3)nn2)CC1", "note": "[COT inhibitor, 3-Quinolinecarbonitrile, 8-chloro-4-[(3-chloro-4-fluorophenyl)amino]-6-[[[1-(1-ethyl-4-piperidinyl)-1H-1,2,3-triazol-4-yl]methyl]amino]-3-quinolinecarbonitrile]", "values": [{"measurement": "inhibitory effect on proliferation (in words)", "setting": "[3]", "result": "variable, but significant, inhibitory effect"}, {"measurement": "inhibition of proliferation", "setting": "[3]", "result": 30, "unit": "%"}, {"measurement": "inhibition of proliferation", "setting": "[1]", "result": "about 30%"}, {"measurement": "inhibitory effect on proliferation (in words)", "setting": "[4]", "result": "higher level of inhibition"}, {"measurement": "inhibition of proliferation", "setting": "[2]", "result": "about 30%"}, {"measurement": "inhibition of proliferation", "setting": "[5]", "result": 20, "unit": "%"}, {"measurement": "inhibitory effect on proliferation (in words)", "setting": "[6]; FIG. 5, FIG. 6", "result": "no effect"}, {"measurement": "inhibitory effect on proliferation (in words)", "setting": "[7]", "result": "variable, but significant, inhibitory effect"}, {"measurement": "inhibitory effect on proliferation (in words)", "setting": "[8]", "result": "variable, but significant, inhibitory effect"}]}
{"smiles": "c1ccc2[nH]c(-c3n[nH]c4ccccc34)nc2c1", "note": "[FIG. 2A without methyl group]", "values": [{"measurement": "kinase selectivity against CDK2, JAK3, MST4, GSK3β", "setting": "[9]", "result": "less selectivity"}, {"measurement": "kinase selectivity against IKKβ, JNK1α, p38, EGFR, CK1α", "setting": "[9]", "result": "good kinase selectivity"}, {"measurement": "IC50", "setting": "[10]; Hu et al. 2011, indazoles with benzimidazole ring, read-out: COT (TPL2) IC50", "result": 109, "unit": "nM"}]}
{"smiles": "Cc1c(CNCCO)cncc1-c1ccc2[nH]nc(-c3nc4ccccc4[nH]3)c2c1", "note": "[FIG. 2B]", "values": [{"measurement": "inhibition of ERK phosphorylation", "setting": "[11]", "result": "inhibits ERK phosphorylation"}]}
{"smiles": "NC(=O)c1cc2c(-c3cccc(-c4ccccc4)c3)cnc(N)c2s1", "note": "[FIG. 3B]", "values": [{"measurement": "activity when added to intact blood cells", "setting": "[12]", "result": "active"}, {"measurement": "IC50", "setting": "[10]; thieno[2,3-c]pyridines, George et al. 2008, Cusack et al. 2009, read-out: COT IC50", "result": 170, "unit": "nM"}, {"measurement": "inhibition of four other related kinases relative to COT", "setting": "[13]", "result": "at least ten-fold less effective"}]}
{"smiles": "CN(C)C1CCN(C(=O)c2ccc(NC(=O)Nc3ccc(-c4nc(N5CCOCC5)nc(N5CCOCC5)n4)cc3)cc2)CC1", "note": "[Gedatolisib]", "values": [{"measurement": "inhibitory effect on proliferation (in words)", "setting": "[3]", "result": "little to no inhibition"}, {"measurement": "inhibitory effect on proliferation (in words)", "setting": "[14]", "result": "significant inhibitory effect"}, {"measurement": "inhibitory effect on proliferation (in words)", "setting": "[8]", "result": "little to no inhibition"}]}
{"smiles": "C=CC(=O)Nc1cc(Nc2nccc(-c3cn(C)c4ccccc34)n2)c(OC)cc1N(C)CCN(C)C", "note": "[Osimertinib]", "values": [{"measurement": "progression-free survival, average", "setting": "[15]; osimertinib, or erlotinib/gefitinib/afatinib followed by osimertinib", "result": 18, "unit": "months"}, {"measurement": "patients who respond", "setting": "[15]; patients relapsed after first or second line EGFR inhibitors", "result": "Fifty percent"}, {"measurement": "reduction of relative cell number", "setting": "[16]", "result": "~50", "unit": "%"}]}
{"smiles": "CC(C)Nc1cc(-c2c[nH]c(C(=O)N[C@H](CO)c3cccc(Cl)c3)c2)c(Cl)cn1", "note": "[Ulixertinib]", "values": [{"measurement": "inhibition of proliferation", "setting": "[3]", "result": 20, "unit": "%"}, {"measurement": "inhibition of proliferation", "setting": "[6]; vs no drug, FIG. 6", "result": 10, "unit": "%"}, {"measurement": "inhibition of proliferation", "setting": "[8]; vs no drug, FIG. 8, FIG. 9", "result": "approximately 20%"}, {"measurement": "inhibition of proliferation", "setting": "[17]", "result": 32, "unit": "%"}, {"measurement": "inhibition of proliferation", "setting": "[18]", "result": 15, "unit": "%"}]}
{"smiles": "CN(C)C/C=C/C(=O)Nc1cc2c(Nc3ccc(F)c(Cl)c3)ncnc2cc1O[C@H]1CCOC1", "note": "[afatinib]", "values": [{"measurement": "inhibition of proliferation", "setting": "[5]", "result": 35, "unit": "%"}]}
{"smiles": "CCc1cc2c(cc1N1CCC(N3CCOCC3)CC1)C(C)(C)c1[nH]c3cc(C#N)ccc3c1C2=O", "note": "[alectinib]", "values": [{"measurement": "clinical benefit in ROS1 positive patients", "setting": "[19]; in vivo", "result": "do not possess clinical benefit"}]}
{"smiles": "C[C@@H](Oc1cc(-c2cnn(C3CCNCC3)c2)cnc1N)c1c(Cl)ccc(F)c1Cl", "note": "[crizotinib]", "values": [{"measurement": "patients in whom treatment was initially effective", "setting": "[19]; clinical trials", "result": "70-80%"}]}
{"smiles": "CN1CCN(c2ccc(C(=O)Nc3n[nH]c4ccc(Cc5cc(F)cc(F)c5)cc34)c(NC3CCOCC3)c2)CC1", "note": "[entrectinib]", "values": [{"measurement": "duration of response", "setting": "[19]; in vivo", "result": 28.6, "unit": "months"}, {"measurement": "objective response rate (ORR)", "setting": "[19]; in vivo", "result": 78, "unit": "%"}]}
{"smiles": "COc1cc2c(Oc3ccc(NC(=O)C4(C(=O)Nc5ccc(F)cc5)CC4)cc3F)ccnc2cc1OCCCN1CCOCC1", "note": "[foretinib]", "values": [{"measurement": "clinical benefit in ROS1 positive patients", "setting": "[19]; in vivo", "result": "do not possess clinical benefit"}]}
{"smiles": "C[C@H]1Oc2cc(cnc2N)-c2c(nn(C)c2C#N)CN(C)C(=O)c2ccc(F)cc21", "note": "[loraltinib]", "values": [{"measurement": "inhibition of proliferation", "setting": "[20]", "result": 81, "unit": "%"}]}
{"smiles": "COc1cc2c(Nc3ccc(Br)cc3F)ncnc2cc1OCC1CCN(C)CC1", "note": "[vandetanib]", "values": [{"measurement": "inhibition of proliferation", "setting": "[5]", "result": 20, "unit": "%"}]}
